# Results published in patent publication US11459324B2, “O-glycoprotein-2-acetamido-2-deoxy-3-D-glycopyranosidase inhibitors” (BIOGEN MA INC., priority 2018, dated 2022).
# Molecular target: T1, Recombinant full length human OGA enzyme (Homo sapiens, UniProt O60502)
# T1 construct: Recombinant full length human OGA enzyme was purchased from Origene; purchased Origene
# T1 sequence (O60502 1-916): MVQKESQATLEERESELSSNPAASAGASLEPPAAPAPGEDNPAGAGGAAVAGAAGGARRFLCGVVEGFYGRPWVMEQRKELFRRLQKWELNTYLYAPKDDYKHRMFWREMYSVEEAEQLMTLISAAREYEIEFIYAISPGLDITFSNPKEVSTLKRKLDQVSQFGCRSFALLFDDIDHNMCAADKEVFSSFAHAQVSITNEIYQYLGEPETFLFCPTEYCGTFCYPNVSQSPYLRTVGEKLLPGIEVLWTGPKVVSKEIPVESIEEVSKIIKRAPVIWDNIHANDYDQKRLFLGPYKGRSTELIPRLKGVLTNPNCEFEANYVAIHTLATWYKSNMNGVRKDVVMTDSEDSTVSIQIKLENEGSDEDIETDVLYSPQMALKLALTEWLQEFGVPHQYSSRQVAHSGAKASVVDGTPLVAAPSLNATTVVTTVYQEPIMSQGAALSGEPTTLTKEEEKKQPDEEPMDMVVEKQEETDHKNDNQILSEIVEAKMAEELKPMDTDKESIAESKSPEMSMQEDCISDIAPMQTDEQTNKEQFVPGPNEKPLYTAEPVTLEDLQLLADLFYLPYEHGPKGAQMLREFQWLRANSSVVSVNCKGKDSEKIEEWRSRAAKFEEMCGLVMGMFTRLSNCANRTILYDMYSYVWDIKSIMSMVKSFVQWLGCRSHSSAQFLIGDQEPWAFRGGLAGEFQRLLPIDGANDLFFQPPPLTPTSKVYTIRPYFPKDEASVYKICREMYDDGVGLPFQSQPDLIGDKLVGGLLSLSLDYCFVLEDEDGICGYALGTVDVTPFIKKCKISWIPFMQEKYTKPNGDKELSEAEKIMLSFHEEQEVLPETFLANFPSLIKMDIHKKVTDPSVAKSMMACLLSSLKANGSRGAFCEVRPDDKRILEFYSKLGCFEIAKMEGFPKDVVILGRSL
# Assay: OGA Enzyme Inhibition Biochemical Assay
# Conditions: 1 nM OGA, 100 μM 4-MUGlcNAc (Km), pH 6.4, 90 minutes at room temperature, 10-point dose-response from 20 μM
# In short: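 Full-length human OGA at 1 nM with 100 μM 4-MUGlcNAc (Km) in McIlvaine buffer pH 6.4 plus 0.01% BSA, 90 min at room temperature, then glycine pH 10 quench. Fluorescence read at Ex 355/Em 460 nm. 10-point, 4-fold dose-response from 20 μM, 4-parameter variable-slope fit.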
row,IC50 [nM],Structure (SMILES)
1,1.6,"CC(=O)Nc1nc(F)c(CN2C[C@H](Cc3noc(C)n3)CC[C@@H]2C)s1 [Example 4-15, N-(4-fluoro-5-(((2S,5S)-2-methyl-5-((5-methyl-1,2,4-oxadiazol-3-yl)methyl)piperidin-1-yl)methyl)thiazol-2-yl)acetamide]"
2,5.1,"CC(=O)Nc1nc(F)c(CN2CC[C@H](Cc3cc(C)ncc3Cl)C2)s1 [Example 3-30, (S)—N-(5-((3-((5-chloro-2-methylpyridin-4-yl)methyl)pyrrolidin-1-yl)methyl)-4-fluorothiazol-2-yl)acetamide]"
3,960,"CC(=O)Nc1ncc(CN2CCCC(Cn3cc(C(F)(F)F)cn3)C2)s1 (centres unmarked) [Example 4-3, N-(5-((3-((4-(trifluoromethyl)-1H-pyrazol-1-yl)methyl)piperidin-1-yl)methyl)thiazol-2-yl)acetamide]"
4,1,"CC(=O)Nc1ncc(CN2CCC[C@@H]([C@@H](C)c3ncc(F)cn3)C2)s1 (single isomer, unassigned) [Example 2-29]"
5,62,"CC(=O)Nc1ncc(CN2CCCC(Cc3cccc(F)c3)C2)s1 (centres unmarked) [Example 1-5, N-(5-((3-(3-fluorobenzyl)piperidin-1-yl)methyl)thiazol-2-yl)acetamide]"
6,450,"CC(=O)Nc1ncc(CN2CC(Cc3ncc(F)cn3)CC(F)(F)C2)s1 (centres unmarked) [Example 2-13, N-(5-((3,3-difluoro-5-((5-fluoropyrimidin-2-yl)methyl)piperidin-1-yl)methyl)thiazol-2-yl)acetamide]"
7,< 1,"COc1cc(C[C@H]2CCCN(Cc3sc(NC(C)=O)nc3F)C2)ncn1 [Example 3-22, (R)-N-(4-fluoro-5-((3-((6-methoxypyrimidin-4-yl)methyl)piperidin-1-yl)methyl)thiazol-2-yl)acetamide]"
8,69,"COc1cncc(CC2CCN(Cc3cnc(NC(C)=O)s3)C2)c1 (centres unmarked) [Example 1-20, N-(5-((3-((5-methoxypyridin-3-yl)methyl)pyrrolidin-1-yl)methyl)thiazol-2-yl)acetamide]"
9,310,"CC(=O)Nc1nc(F)c(CN2C[C@H](Cc3ncc(F)cn3)C[C@H]2C)s1 [Example 3-39, N-(4-fluoro-5-(((2R,4S)-4-((5-fluoropyrimidin-2-yl)methyl)-2-methylpyrrolidin-1-yl)methyl)thiazol-2-yl)acetamide]"
10,1,"COc1nc(C[C@H]2CCCN(Cc3cnc(NC(C)=O)s3)C2)nc(C)c1F [Example 3-8, (R)-N-(5-((3-((5-fluoro-4-methoxy-6-methylpyrimidin-2-yl)methyl)piperidin-1-yl)methyl)thiazol-2-yl)acetamide]"
11,34,"CCC(=O)Nc1nc(F)c(CN2CC[C@H](Cc3ncc(F)cn3)C2)s1 [Example 3-27, (R)-N-(4-fluoro-5-((3-((5-fluoropyrimidin-2-yl)methyl)pyrrolidin-1-yl)methyl)thiazol-2-yl)propionamide]"
12,7,"CC(=O)Nc1ncc(CN2CC[C@H](Cc3ncc(F)cn3)C2)s1 (single isomer, unassigned) [Example 2-1]"
13,< 1,"CC(=O)Nc1nc(F)c(CN2C[C@@H](Cc3ncc(F)cn3)C[C@@H]2C)s1 [Example 3-41, N-(4-fluoro-5-(((2S,4R)-4-((5-fluoropyrimidin-2-yl)methyl)-2-methylpyrrolidin-1-yl)methyl)thiazol-2-yl)acetamide]"
14,1100,"CC(=O)Nc1ncc(CN2C[C@@H](Cc3ncc(F)cn3)CC[C@H]2C)s1 (single isomer, unassigned) [Example 2-24]"
15,310,"CC(=O)Nc1ncc(CN2CCCC(Cn3cc(Br)cn3)C2)s1 (centres unmarked) [Example 4-9, N-(5-((3-((4-bromo-1H-pyrazol-1-yl)methyl)piperidin-1-yl)methyl)thiazol-2-yl)acetamide]"
16,12,"CC(=O)Nc1ncc(CN2CCC(F)(F)C(Cc3ncc(F)cn3)C2)s1 (centres unmarked) [Example 2-14, N-(5-((4,4-difluoro-3-((5-fluoropyrimidin-2-yl)methyl)piperidin-1-yl)methyl)thiazol-2-yl)acetamide]"
17,2,"CC(=O)Nc1ncc(CN2CCC[C@H](Cc3ncc(C(F)F)cn3)C2)s1 [Example 3-6, (R)-N-(5-((3-((5-(difluoromethyl)pyrimidin-2-yl)methyl)piperidin-1-yl)methyl)thiazol-2-yl)acetamide]"
18,2,"COc1cccc(CC2CCCN(Cc3cnc(NC(C)=O)s3)C2)n1 (centres unmarked) [Example 1-6, N-(5-((3-((6-methoxypyridin-2-yl)methyl)piperidin-1-yl)methyl)thiazol-2-yl)acetamide]"

row,IC50 [nM],Structure (SMILES)
1,< 1,"CC(=O)Nc1nc(F)c(CN2CCC[C@H](Cc3cc(C)nc(C)n3)C2)s1 [Example 3-21, (R)-N-(5-((3-((2,6-dimethylpyrimidin-4-yl)methyl)piperidin-1-yl)methyl)-4-fluorothiazol-2-yl)acetamide]"
2,36,"CC(=O)Nc1ncc(CN2C[C@@H](Cc3ncc(F)cn3)[C@H](C)C2)s1 (relative stereo) [Example 2-22, N-(5-(((trans)-3-((5-fluoropyrimidin-2-yl)methyl)-4-methylpyrrolidin-1-yl)methyl)thiazol-2-yl)acetamide]"
3,270,"CC(=O)Nc1ncc(CN2CCC(Cc3cccc(F)c3)C2)s1 (centres unmarked) [Example 1-16, N-(5-((3-(3-fluorobenzyl)pyrrolidin-1-yl)methyl)thiazol-2-yl)acetamide]"
4,14,"CC(=O)Nc1ncc(CN2CC[C@H](Cc3nccc(C)n3)C2)s1 [Example 3-10, (R)-N-(5-((3-((4-methylpyrimidin-2-yl)methyl)pyrrolidin-1-yl)methyl)thiazol-2-yl)acetamide]"
5,43,"CC(=O)Nc1ncc(CN2CCCC(Cc3nccn3C)C2)s1 (centres unmarked) [Example 4-22, N-(5-((3-((1-methyl-1H-imidazol-2-yl)methyl)piperidin-1-yl)methyl)thiazol-2-yl)acetamide]"
6,27,"CC(=O)Nc1ncc(CN2CCCC(Cc3nnc4ccccn34)C2)s1 (centres unmarked) [Example 4-23, N-(5-((3-([1,2,4]triazolo[4,3-a]pyridin-3-ylmethyl)piperidin-1-yl)methyl)thiazol-2-yl)acetamide]"
7,16,"CC(=O)Nc1ncc(CN2CCCC(Cc3ccn(C)n3)C2)s1 (centres unmarked) [Example 1-47, N-(5-((3-((1-methyl-1H-pyrazol-3-yl)methyl)piperidin-1-yl)methyl)thiazol-2-yl)acetamide]"
8,6.6,"CC(=O)Nc1nc(F)c(CN2CCCC(Cc3noc(C)n3)C2)s1 (centres unmarked) [Example 4-18, N-(4-fluoro-5-((3-((5-methyl-1,2,4-oxadiazol-3-yl)methyl)piperidin-1-yl)methyl)thiazol-2-yl)acetamide]"
9,3900,"CC(=O)Nc1ncc(CN2C[C@@H](Cc3ncc(F)cn3)C[C@@H]2C(F)(F)F)s1 (single isomer, unassigned) [Example 2-46]"
10,3.8,"CC(=O)Nc1ncc(CN2C[C@H](Cc3noc(C)n3)C[C@@H]2C)s1 [Example 4-14, N-(5-(((2S,4S)-2-methyl-4-((5-methyl-1,2,4-oxadiazol-3-yl)methyl)pyrrolidin-1-yl)methyl)thiazol-2-yl)acetamide]"
11,2,"CC(=O)Nc1ncc(CN2CCCC(Cc3ncnc4ccsc34)C2)s1 (centres unmarked) [Example 1-44, N-(5-((3-(thieno[3,2-d]pyrimidin-4-ylmethyl)piperidin-1-yl)methyl)thiazol-2-yl)acetamide]"
12,2.2,"CCC(=O)Nc1nc(F)c(CN2CCC[C@H](Cc3cc(OC)ncn3)C2)s1 [Example 3-49, (R)-N-(4-fluoro-5-((3-((6-methoxypyrimidin-4-yl)methyl)piperidin-1-yl)methyl)thiazol-2-yl)propionamide]"
13,1.9,"CC(=O)Nc1ncc(CN2C[C@@H](Cc3noc(C)n3)C[C@@H]2C)s1 [Example 4-13, N-(5-(((2S,4R)-2-methyl-4-((5-methyl-1,2,4-oxadiazol-3-yl)methyl)pyrrolidin-1-yl)methyl)thiazol-2-yl)acetamide]"
14,1,"CC(=O)Nc1ncc([C@H](C)N2CCC[C@H](Cc3ncc(F)cn3)C2)s1 (single isomer, unassigned) [Example 2-11]"
15,29,"CC(=O)Nc1ncc([C@@H](C)N2CCC[C@H](Cc3ncc(F)cn3)C2)s1 (single isomer, unassigned) [Example 2-10]"
16,220,"CC(=O)Nc1ncc(CN2CCC(Cc3ccc(F)cn3)C2)s1 (centres unmarked) [Example 1-25, N-(5-((3-((5-fluoropyridin-2-yl)methyl)pyrrolidin-1-yl)methyl)thiazol-2-yl)acetamide]"
17,< 1,"CC(=O)Nc1nc(F)c(CN2C[C@H](Cc3noc(C)n3)C[C@@H]2C)s1 (single isomer, unassigned) [Example 4-12 Peak 2]"
